Experimental data: patent US12378186B2, “Inhibitors of meprin α and β” (VIVORYON THERAPEUTICS N.V., priority 2016, dated 2025)
Like-named read-outs stand apart in the source and are kept apart here.

How the values were obtained:
[1] = molecular target: T1, hMeprin β (Homo sapiens, UniProt Q16820); experiment: Enzymatic assay, cleavage of internally quenched peptide substrate, hMeprin β; format: biochemical
T1 sequence (Q16820 62-701): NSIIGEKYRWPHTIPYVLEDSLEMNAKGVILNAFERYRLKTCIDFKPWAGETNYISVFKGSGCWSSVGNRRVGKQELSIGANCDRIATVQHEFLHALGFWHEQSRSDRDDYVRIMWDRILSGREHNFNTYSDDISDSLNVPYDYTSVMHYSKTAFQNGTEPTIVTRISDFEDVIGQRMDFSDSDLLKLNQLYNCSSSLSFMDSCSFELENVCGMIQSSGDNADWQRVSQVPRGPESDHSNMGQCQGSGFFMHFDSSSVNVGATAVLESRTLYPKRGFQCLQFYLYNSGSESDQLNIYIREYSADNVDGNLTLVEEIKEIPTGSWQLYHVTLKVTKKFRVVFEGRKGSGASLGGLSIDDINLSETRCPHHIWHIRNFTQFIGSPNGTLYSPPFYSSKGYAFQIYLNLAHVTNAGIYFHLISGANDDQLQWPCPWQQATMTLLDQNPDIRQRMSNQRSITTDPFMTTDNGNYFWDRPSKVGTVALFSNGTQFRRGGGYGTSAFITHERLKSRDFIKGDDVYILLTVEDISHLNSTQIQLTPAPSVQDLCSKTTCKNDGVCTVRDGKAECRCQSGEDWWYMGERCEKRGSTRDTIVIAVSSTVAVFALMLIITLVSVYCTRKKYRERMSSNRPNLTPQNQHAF
Description: (§1) A typical assay of 250 μl total volume measured in black 96 well plates consisted of 100 μl buffer, 50 μl enzyme at a final concentration of 5e-8 M to 5e-9 M, 50 μl substrate (0.15 to 80 μM, in buffer, 0.5% DMSO) and 50 μl inhibitor solution (in buffer, 1% DMSO). In case of 125 μl assay volume (black 96 half area well plates) all volumes were cut in half. Enzymatic activity of ADAMs was measured in 384 well plates with 60 μl total assay volume consisting of 20 μl inhibitor, 20 μl buffer, 10 μl enzyme and 10 μl substrate.
(§2) Ki values were assessed combining 4 substrate concentrations (5-40 μM) with at least 5 inhibitor concentrations. […] Initial velocities were determined and converted into concentration units applying a standard curve obtained after complete conversion of different substrate concentrations under assay conditions. All measurements were performed using a fluorescence plate reader (FLUOstar OPTIMA, BMG Labtech) at 30° C. The kinetic parameters were determined at least in duplicates on separate days. The excitation/emission wavelength was 340/420 nm. The kinetic data was evaluated using GraFit software (version 7.0.3, Erithacus Software).
(§3) The following compounds according to the present invention were synthesized using the above general procedures. IC50 refers to the average IC50 values measured as described above, SD (IC50) refers to the standard deviation of the average IC50 values, Ki refers to the average K; values measured as described above, and SD (Ki) to the standard deviation of the average Ki values.

[2] = molecular target: T2, hMeprin α (Homo sapiens, UniProt Q16819); experiment: biochemical; format: biochemical
T2 sequence (Q16819 66-746): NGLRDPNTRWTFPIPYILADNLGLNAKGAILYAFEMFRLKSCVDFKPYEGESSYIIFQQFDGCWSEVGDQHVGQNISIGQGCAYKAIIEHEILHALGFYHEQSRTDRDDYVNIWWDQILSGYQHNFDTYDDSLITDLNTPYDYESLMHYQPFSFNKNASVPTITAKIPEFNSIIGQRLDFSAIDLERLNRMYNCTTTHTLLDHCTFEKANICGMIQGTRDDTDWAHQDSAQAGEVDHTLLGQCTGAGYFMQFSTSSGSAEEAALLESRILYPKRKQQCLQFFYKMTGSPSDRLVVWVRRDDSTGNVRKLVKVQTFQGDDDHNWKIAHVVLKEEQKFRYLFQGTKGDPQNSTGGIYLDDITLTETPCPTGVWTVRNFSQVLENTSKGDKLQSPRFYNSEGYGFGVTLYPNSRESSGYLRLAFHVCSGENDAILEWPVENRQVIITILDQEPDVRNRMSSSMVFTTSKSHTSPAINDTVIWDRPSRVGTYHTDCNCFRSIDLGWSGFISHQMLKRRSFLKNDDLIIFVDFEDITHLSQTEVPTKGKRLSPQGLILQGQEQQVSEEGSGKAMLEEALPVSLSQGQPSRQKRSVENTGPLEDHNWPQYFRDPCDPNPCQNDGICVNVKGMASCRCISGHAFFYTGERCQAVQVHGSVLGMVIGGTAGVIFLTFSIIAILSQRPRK
Description: as §1, §2, §3

[3] = average IC50, 10 μM substrate, 30° C., 40 mM HEPES pH 7.4, read-out: Meprin Alpha IC50
[4] = average Ki, 4 substrate concentrations (5-40 μM), 30° C., 40 mM HEPES pH 7.4, read-out: Meprin Alpha Ki
[5] = average IC50, 10 μM substrate, 30° C., 40 mM Tris pH 8.0, read-out: Meprin Beta IC50

IC50 [1] [nM]	IC50 [2, 3] [nM]	Ki [2, 4] [nM]	Structure (SMILES)	Ki [1] [nM]	IC50 [1, 5] [nM]	IC50 [2] [nM]	Ki [2] [nM]
34500	3200	–	COc1ccc(CN(CC(=O)NO)Cc2cccc(OC)c2)cc1 [Example 27, 2-[(3-Methoxyphenyl)methyl-[(4-methoxyphenyl)-methyl]amino]ethanehydroxamic acid]	–	–	–	–
468	85700	–	O=C(CN(Cc1ccc(C(=O)O)cc1)Cc1ccc(C(=O)O)cc1)NO [Example 1, 4-[[(4-Carboxyphenyl)methyl-[2-(hydroxyamino)-2-oxo-ethyl]amino]methyl]benzoic acid]	223	–	–	–
53400	1990	–	COc1ccc(CN(CC(=O)NO)Cc2ccc(Cl)cc2)cc1 [Example 26, 2-[(4-Chlorophenyl)methyl-[(4-methoxyphenyl)-methyl]amino]ethanehydroxamic acid]	–	–	–	–
25000	3540	1190	COC(=O)c1cccc(CN(CC(=O)NO)Cc2cccc(C(N)=O)c2)c1 [Example 42]	–	–	–	–
7590	400	117	O=C(CCN(Cc1ccc2c(c1)OCCO2)Cc1ccc2c(c1)OCCO2)NO [Example 69, 3-[bis(2,3-dihydro-1,4-benzodioxin-6-ylmethyl)amino]propanehydroxamic acid]	3740	–	–	–
4570	554	164	COc1cc(CN(CC(=O)NO)Cc2cc(OC)c3c(c2)OCO3)cc2c1OCO2 [Example 68, 2-[bis[(7-methoxy-1,3-benzodioxol-5-yl)methyl]amino]ethanehydroxamic acid]	1820	–	–	–
355	2120	1260	COc1cc(F)c(CN(CC(=O)NO)Cc2cccc(C(=O)O)c2)c(F)c1 [Example 11, 3-[[(2,6-Difluoro-4-methoxy-phenyl)methyl-[2-(hydroxyamino)-2-oxo-ethyl]amino]methyl]benzoic acid]	154	–	–	–
80400	4130	–	COc1ccc(CN(CC(=O)NO)Cc2ccc(F)cc2)cc1 [Example 25, 2-[(4-fluorophenyl)methyl-[(4-methoxyphenyl)-methyl]amino]ethanehydroxamic acid]	–	–	–	–
–	–	–	O=C(CN(Cc1ccc(F)cc1)Cc1cccc(C(=O)O)c1)NO [Example 21, 3-[[(4-Fluorophenyl)methyl-[2-(hydroxyamino)-2-oxo-ethyl]amino]methyl]benzoic acid]	1680	177	4220	1680
60900	2330	–	COc1ccc(CN(CC(=O)NO)Cc2ccc(C)cc2)cc1 [Example 24, 2-[(4-Methoxyphenyl)methyl-(p-tolylmethyl)-amino]ethanehydroxamic acid]	–	–	–	–
138000	3060	838	O=C(CN(Cc1ccc(Cl)cc1F)Cc1ccc(Cl)cc1F)NO [Example 60, 2-[bis[(4-chloro-2-fluoro-phenyl)methyl]-amino]ethanehydroxamic acid]	–	–	–	–
20000	1680	–	COc1ccc(CN(CC(=O)NO)Cc2ccc3c(c2)OCO3)cc1 [Example 23]	–	–	–	–
30600	1520	297	O=C(CN(Cc1ccc2c(c1)OCCO2)Cc1ccc2c(c1)OCCO2)NO [Example 63, 2-[bis(2,3-dihydro-1,4-benzodioxin-6-yl-methyl)amino]ethanehydroxamic acid]	–	–	–	–
–	1430	606	O=C(CN(Cc1cccc(C(=O)O)c1)Cc1ccc2c(c1)OCO2)NO [Example 22, 3-[[1,3-Benzodioxol-5-ylmethyl-[2-(hydroxy-amino)-2-oxo-ethyl]amino]-methyl]benzoic acid]	105	–	–	–
39300	265000	–	CC(C)(NCc1cccc(C(=O)O)c1)C(=O)NO [Example 32, 3-[[[2-(Hydroxyamino)-1,1-dimethyl-2-oxo-ethyl]amino]methyl]benzoic acid]	–	–	–	–
331	995	328	COc1ccc(CN(CC(=O)NO)Cc2ccc(F)c(O)c2F)cc1 [Example 53, 2-[(2,4-difluoro-3-hydroxy-phenyl)methyl-[(4-methoxyphenyl)methyl]amino]ethanehydroxamic acid]	158	–	–	–
20100	5320	1180	COc1cc(CN(CC(=O)NO)Cc2cc(OC)c(OC)c(OC)c2)cc(OC)c1OC [Example 61, 2-[bis[(3,4,5-trimethoxyphenyl)methyl]-amino]-ethanehydroxamic acid]	–	–	–	–

Structure (SMILES)	IC50 [1] [nM]	IC50 [2, 3] [nM]	Ki [2, 4] [nM]	Ki [1] [nM]	IC50 [1, 5] [nM]	IC50 [2] [nM]	Ki [2] [nM]
N#Cc1ccc(CN(CC(=O)NO)Cc2cccc(C(=O)O)c2)cc1 [Example 19, 3-[[(4-Cyanophenyl)methyl-[2-(hydroxyamino)-2-oxo-ethyl]amino]methyl]benzoic acid]	–	4880	1950	125	320	–	–
O=C(CN(Cc1cccc(O)c1F)Cc1cccc(O)c1F)NO [Example 51, 2-[bis[(2-fluoro-3-hydroxy-phenyl)methyl]-amino]ethanehydroxamic acid]	–	1210	335	1170	2900	–	–
O=C(CN(Cc1cccc(OC(F)F)c1)Cc1cccc(OC(F)F)c1)NO [Example 72]	–	5680	2150	–	57000	–	–
O=C(CN(Cc1ccc(C(=O)O)cc1)Cc1cccc(C(=O)O)c1)NO [Example 7, 3-[[(4-Carboxyphenyl)methyl-[2-(hydroxyamino)-2-oxo-ethyl]amino]methyl]benzoic acid]	–	44400	–	101	206	–	–
CC(C)[C@H](NCc1cccc(C(=O)O)c1)C(=O)NO [Example 29, 3-[[[(1S)-1-(Hydroxycarbamoyl)-2-methyl-propyl]amino]methyl]benzoic acid]	–	44400	–	–	15800	–	–
O=C(O)c1cccc(CN[C@H](C(=O)NO)c2ccccc2)c1 [Example 37, 3-[[[(1S)-2-(Hydroxyamino)-2-oxo-1-phenyl-ethyl]amino]methyl]benzoic acid]	–	26300	–	–	12200	–	–
C[C@@H](NCc1cccc(C(=O)O)c1)C(=O)NO [Example 33, 3-{[[(1R)-2-(Hydroxyamino)-1-methyl-2-oxo-ethyl]amino]methyl]benzoic acid]	–	45100	–	2580	4260	–	–
O=C(O)CC[C@H](NCc1cccc(C(=O)O)c1)C(=O)NO [Example 39, 3-[[[(1S)-3-carboxy-1-(hydroxylcarbamoyl)-propyl]amino]methyl]benzoic acid]	–	8660	2530	325	654	–	–
O=C(CN(Cc1ccc2c(c1)OCO2)Cc1ccc2c(c1)OCO2)NO [Example 4, 2-[bis(1,3-Benzodioxol-5-ylmethyl)amino]-ethanehydroxamic acid]	5360	830	274	6560	–	–	–
